Measured values: publication PMC5493349, “Quaternary structure is an essential component that contributes to the sophisticated allosteric regulation mechanism in a key enzyme from Mycobacterium tuberculosis” (PLoS ONE, 2017)

Columns and labels:
wild-type MtuDAH7PS [1] = molecular target: T1, wild-type MtuDAH7PS (Mycobacterium tuberculosis, UniProt O53512); conditions: cited from earlier work
MtuDAH7PSF227D = MtuDAH7PSF227D (Mycobacterium tuberculosis, UniProt O53512, F227D); type: biochemical
MtuDAH7PSG232P = MtuDAH7PSG232P (Mycobacterium tuberculosis, UniProt O53512, G232P); type: biochemical
wild-type MtuDAH7PS [2] = molecular target: T1, wild-type MtuDAH7PS; type: biochemical

N[C@@H](Cc1ccccc1)C(=O)O [Phe, L-Phe]
inhibition of wild-type enzyme by single amino acid, unsaturated E4P (wild-type MtuDAH7PS [1]): 50%
inhibition of dimeric variant MtuDAH7PSF227D (MtuDAH7PSF227D): 50%
inhibition of dimeric variant MtuDAH7PSG232P (MtuDAH7PSG232P): 50%

N[C@@H](Cc1ccc(O)cc1)C(=O)O [Tyr, L-Tyr]
inhibition of wild-type enzyme by single amino acid, unsaturated E4P (wild-type MtuDAH7PS [1]): 47%
inhibition of wild-type enzyme (wild-type MtuDAH7PS [2]): no inhibition
inhibition of dimeric variant MtuDAH7PSF227D (MtuDAH7PSF227D): 40%
inhibition of dimeric variant MtuDAH7PSG232P (MtuDAH7PSG232P): 40%
